Reference: US8535730B1, “Anticalculus oral composition” (Colgate-Palmolive Company, priority 1985, dated 2013)
Where two headings read alike, the source gives them in different places.

Tests used:
[1] = Procedure: The in vitro formation of HAP is measured titrimetrically via a pH stat procedure. Stock solutions of 0.1M CaCl2 and 0.1M NaH2PO4 are prepared fresh in carbonate-free deionized distilled water. To 23 ml CO2-free deionized water 1.0 ml. of the stock phosphate solution and 1.0 ml. of an aqueous solution of 1×10^−4 of the anticalculus agent being tested are added followed by 1.0 ml. of the stock calcium-chloride solution which initiates the reaction. The reaction is conducted at pH 7.4 under a nitrogen atmosphere. Consumption of 0.1N NaOH is recorded automatically from which the time required for crystal formation is determined.
[2] = tested on: acid phosphatase, alkaline phosphatase, and inorganic pyrophosphatase; conditions: for Percent Orthophosphate Released in 90 min.: pH 7.0, 37° C.
Procedure: Enzymatic hydrolysis is conducted in 100 millimolar morpholinopropane sulfonic acid—NaOH buffer solution (pH 7.0) containing 1.3 mg./ml of TSPP. Inhibitors of this invention are added (except to the control) to a final concentration of 1,000 ppm fluoride ion (from NaF) and 0.5% of the sodium salt of hydrolyzed methoxyethylene-maleic anhydride (1:1) copolymer, M.W. 70,000 (Gantrez S-97 Pharmaceutical Grade). Equal activities of acid phosphatase, alkaline phosphatase, and inorganic pyrophosphatase are then added to yield a total phosphatase activity of 0.3 units/ml. Samples of the test solution are taken and total orthophosphate available in each sample measured after 3 hours hydrolysis in 4N HCl at 100° C. The reaction mixture is incubated at 37° C. with shaking and aliquots taken at appropriate times through at least 90 minutes for orthophosphate determination.

Structure (SMILES)	HAP formation inhibition results compared with TSPP (in words) ([1]; water, saliva, pyrophosphatase, alkaline phosphatase, TKPP instead of TSPP)	Enzymatic hydrolysis results compared with TSPP (in words) ([2]; equivalent amounts of TKPP substituted for TSPP, with and without inhibitors)	Time of Crystal Growth Inhibition ([1]; Water, pH 7.4, nitrogen atmosphere) [h]	Delay of HAP formation (in words) ([1]; in water)	Time of Crystal Growth Inhibition ([1]; incubated with Alk. Phosphatase, pH 7.4) [h]	Time of Crystal Growth Inhibition ([1]; incubated with Pyrophosphatase, pH 7.4) [h]	Time of Crystal Growth Inhibition ([1]; incubated with Saliva, pH 7.4) [h]	Delay period of HAP formation (in words) ([1]; incubated with pyrophosphatase and alkaline phosphatase)	Effectiveness in delaying HAP formation (in words) ([1]; incubated with saliva)	Percent Orthophosphate Released in 90 min. ([2]; Control (no inhibitors), 1.3 mg./ml TSPP, total phosphatase activity 0.3 units/ml) [%]	Percent Orthophosphate Released in 90 min. ([2]; With Inhibitors: 1,000 ppm fluoride ion (from NaF) and 0.5% Gantrez S-97, 0.3 units/ml phosphatase) [%]	Percent Relative Protection (reduction of hydrolysis of P-O-P bonds with inhibitors) ([2]; With inhibitors vs control, 90 min.) [%]
O=P([O-])([O-])OP(=O)([O-])[O-].[K+].[K+].[K+].[K+] [TKPP, tetrapotassium pyrophosphate]	Substantially the same results	Substantially the same results	–	–	–	–	–	–	–	–	–	–
O=P([O-])([O-])OP(=O)([O-])[O-].[Na+].[Na+].[Na+].[Na+] [TSPP, Tetrasodium pyrophosphate]	–	–	0.8	significantly delays HAP formation	0.0	0.3	0.4	drastically reduces the delay period	drastically reduced	98	58	41
